Assay results taken from patent US11591326B2, “Inhibitors of protein arginine methyltransferase 5 (PRMT5), pharmaceutical products thereof, and methods thereof” (PHARMABLOCK SCIENCES (NANJING), INC., priority 2018, dated 2023).

Experiments:
[1] = molecular target: Human recombinant PRMT5 in complex with human recombinant MEP50 (Homo sapiens (Human), UniProt O14744); experiment: PRMT5/MEP50 AlphaLISA enzyme inhibitory assay; type: biochemical; conditions: PRMT5/MEP50 25 nM, SAM 10 μM, Biotin-H4 peptide 30 nM
Chain of Human recombinant PRMT5 in complex with human recombinant MEP50 (O14744 whole entry): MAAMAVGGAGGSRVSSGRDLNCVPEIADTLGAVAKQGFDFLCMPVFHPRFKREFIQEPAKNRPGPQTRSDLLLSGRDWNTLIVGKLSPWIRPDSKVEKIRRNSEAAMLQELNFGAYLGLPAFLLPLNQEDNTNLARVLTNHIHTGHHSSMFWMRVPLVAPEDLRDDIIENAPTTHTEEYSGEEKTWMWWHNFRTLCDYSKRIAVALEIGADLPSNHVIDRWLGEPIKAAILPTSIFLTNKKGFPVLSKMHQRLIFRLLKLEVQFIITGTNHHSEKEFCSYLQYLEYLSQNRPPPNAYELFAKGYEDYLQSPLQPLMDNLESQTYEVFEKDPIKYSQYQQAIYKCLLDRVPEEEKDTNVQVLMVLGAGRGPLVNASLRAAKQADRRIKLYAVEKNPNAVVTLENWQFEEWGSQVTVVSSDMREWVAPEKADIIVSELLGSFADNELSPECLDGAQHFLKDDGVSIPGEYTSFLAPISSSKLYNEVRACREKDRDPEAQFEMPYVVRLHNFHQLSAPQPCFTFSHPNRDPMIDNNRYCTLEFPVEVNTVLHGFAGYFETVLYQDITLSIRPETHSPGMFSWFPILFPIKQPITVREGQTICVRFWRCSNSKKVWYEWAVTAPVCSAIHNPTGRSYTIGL
Chain of Human recombinant PRMT5 in complex with human recombinant MEP50 (Q9BQA1 whole entry partner): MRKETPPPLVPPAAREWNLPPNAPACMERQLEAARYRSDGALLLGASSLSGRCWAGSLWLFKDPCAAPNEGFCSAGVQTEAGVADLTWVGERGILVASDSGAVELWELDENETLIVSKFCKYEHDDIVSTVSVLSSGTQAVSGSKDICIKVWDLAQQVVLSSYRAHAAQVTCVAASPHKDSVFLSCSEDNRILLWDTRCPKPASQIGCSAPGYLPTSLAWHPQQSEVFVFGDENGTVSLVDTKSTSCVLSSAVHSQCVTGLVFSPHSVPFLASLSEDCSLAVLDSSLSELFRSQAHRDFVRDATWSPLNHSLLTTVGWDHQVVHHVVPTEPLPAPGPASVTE
Method in brief: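 Insect-cell-expressed PRMT5/MEP50 (25 nM) preincubated with SAM (10 μM), then 15 min with compound in pH 8.5 Tris buffer, 1% DMSO. Biotin-H4(1–21) peptide (30 nM) reaction ran 120 min at room temperature. H4R3 methylation detected by AlphaLISA; IC50 from four-parameter sigmoidal fit.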

[2] = tested on: Pancreatic Carcinoma MIA PaCa-2 cell; experiment: Cell proliferation inhibition, MIA PaCa-2 (CellTiter-Glo); type: cell-based; conditions: Homo sapiens, MIA PaCa-2, incubated for 12 days (read after 8 or 12 days), read-out: IC50 (μM) MIA PaCa2
Excerpt: (§1) Materials and Cell Lines: Z-138, U251, and MIA PaCa2 cells were purchased from ATCC (American Type Culture Collection, Manassas, Va.) and Chinese Academy of Science (Shanghai, China). Iscove's Modified Dulbecco's Medium (IMDM), Dulbecco's Modified Eagle Medium (DMEM), penicillin-streptomycin, heat inactivated fetal bovine serum (FBS), and horse serum was purchased from ThermoFisher, Waltham, Mass., USA. Corning 96- and 384-well cell culture plates were purchased from ThermoFisher, Waltham, Mass., USA. Cell-Titer Glo® was purchased from Promega Corporation, Madison, Wis., USA.
In order to evaluate the inhibitory ability of compounds synthesized on the proliferation of the Pancreatic Carcinoma MIA PaCa-2 cell, exponentially growing cells were seeded in the culture media of DMEM with 10% FBS, 2.5% horse serum, 1 mM of Sodium Pyruvate and 1% penicillin-streptomycin at a concentration of 2500 cells/ml in a 384-well plate with 20 ul per well and incubated overnight at 37° C., 5% CO2 incubator. Compounds were prepared as 10-point, 3-fold serial dilutions in DMSO, beginning at 6 mM. 1 μl of DMSO solutions from the compound stock plates were added to 99 ul of cell media (final top concentration of compound in the assay was 30 uM and the final concentration of DMSO was 0.5%). 20 μL of compound solutions in media were added to each well of MIA PaCa-2 cell plates. After adding compound solutions, assay plates were incubated for 12 days at 37° C., 5% CO2. During this incubation period, cell media was changed every 4 days. After removing old media from cell plates, 40 ul of media with testing compounds dissolved, which were prepared by adding 1 ul of compound DMSO serial solutions to 199 ul of cell media, were added to the assay plates with the same layout as they were initially prepared. After 8 or 12 days, cell viability was measured using the CellTiter-Glo assay kit from Promega (Madison, Wis., USA) by quantitating the ATP present in the cell cultures. 20 μL of CellTiter-Glo reagent was added to each well of the cell plates. Luminescence was read after 10 minute of incubation with the Envision multiple plate reader from PerkinElmer (Waltham, Mass., USA). The concentrations of compounds inhibiting cell viability by 50% (IC50 values) were determined using a sigmoidal dose-response model (variable slopes, four parameters) in Prism 7 (La Jolla, Calif., USA).

[3] = tested on: Mantle Cell Lymphoma Z-138 cell; experiment: Cell proliferation inhibition, Z-138 (CCK8); type: cell-based; conditions: Homo sapiens, Z-138, 96 h, Z-138, incubated 4 days
Excerpt: as §1
In order to evaluate the inhibitory ability of compounds synthesized on the proliferation of the Mantle Cell Lymphoma Z-138 cell, exponentially growing cells were seeded in the media of IMDM with 10% horse serum and 1% penicillin-streptomycin at a concentration of 30000 cells/ml in a 96-well plate with 100 ul per well and incubated overnight at 37° C., 5% CO2 incubator. Compounds were prepared as 10-point, 3-fold serial dilutions in DMSO, beginning at 6 mM. 1 μl of DMSO solutions from the compound stock plates were added to 99 ul of cell culture media (final top concentration of compound in the assay was 30 uM and the final concentration of DMSO was 0.5%). 100 μL of compound solutions in media were added to each well of Z-138 cell plates. After adding compound solutions, assay plates were incubated for 4 days at 37° C., 5% CO2. Cell viability was measured using the Cell Counting Kit-8 (CCK8) obtained from the Beyotime Biotehnology, Shanghai, China. 20 ul of CCK8 reagent was added to each well of the Z-138 assay plate which was incubated at 37° C. for 2 hours. O.D. at 450 nm was read with the FlexStation 3 microplate reader (Molecular Devices, Sunnyvale, Calif. 94089 USA). The concentrations of compounds inhibiting cell viability by 50% (IC50 values) were determined using a sigmoidal dose-response model (variable slopes, four parameters) in Prism 7 (La Jolla, Calif.).

Glioblastoma U-251 cell = experiment: Cell proliferation inhibition, U-251 (CellTiter-Glo); type: cell-based; conditions: Homo sapiens, U-251, incubated for 12 days (read after 8 or 12 days)
Excerpt: as §1
In order to evaluate the inhibitory ability of compounds synthesized on the proliferation of the Glioblastoma U-251 cell, exponentially growing cells were seeded in the cell culture media of DMEM with 10% FBS and 1% penicillin-streptomycin at a concentration of 10000 cells/ml in a 384-well plate with 20 ul per well and incubated overnight at 37° C., 5% CO2 incubator. Compounds were prepared as 10-point, 3-fold serial dilutions in DMSO, beginning at 6 mM. 1 μl of DMSO solutions from the compound stock plates were added to 99 ul of cell culture media (final top concentration of compound in the assay was 30 uM and the final concentration of DMSO was 0.5%). 20 μL of compound solutions in media were added to each well of U-251 cell plates. After adding compound solutions, assay plates were incubated for 12 days at 37° C., 5% CO2. During this incubation period, cell culture media with freshly dissolved testing compounds was changed every 4 days. After removing old media from cell plates, 40 ul of media with testing compounds dissolved, which were prepared by adding 1 ul of compound DMSO serial solutions to 199 ul of cell media, were added to the assay plates with the same layout as they were initially prepared. After 8 or 12 days, cell viability was measured using the CellTiter-Glo assay kit from Promega (Madison, Wis., USA) by quantitating the ATP present in the cell cultures. 20 μL of CellTiter-Glo reagent was added to each well of the cell plates. Luminescence was read after 10 minute of incubation with the Envision multiple plate reader from PerkinElmer (Waltham, Mass., USA). The concentrations of compounds inhibiting cell viability by 50% (IC50 values) were determined using a sigmoidal dose-response model (variable slopes, four parameters) in Prism 7 (La Jolla, Calif., USA).

| IC50 [1] [µM] | IC50 [2] [µM] | IC50 [3] [µM] | IC50 (Glioblastoma U-251 cell) [µM] | Structure (SMILES) |
| --- | --- | --- | --- | --- |
| 0.108 | 0.83 | 0.137 | 5.8 | CC(=O)N1CCC(Nc2ccc3c(c2)C(=O)N(C[C@@H](O)CN2CCc4ccccc4C2)CCO3)CC1 [Compound 52b] |
| 0.012 | 0.66 | 0.13 | 0.48 | Cn1cc(Nc2ccc3c(c2)C(=O)N(C[C@H](O)CN2CCc4ccccc4C2)CC3)cn1 [Compound 12a, (R)-2-(3-(3,4-dihydroisoquinolin-2(1H)-yl)-2-hydroxypropyl)-7-((1-methyl-1H-pyrazol-4-yl)amino)-3,4-dihydroisoquinolin-1(2H)-one] |
| 0.0046 | 0.23 | 0.018 | 0.18 | O=C1c2cc(Nc3ccnnc3)ccc2OCCN1C[C@H](O)CN1CCc2ccccc2C1 [Compound 30a, (R)-4-(3-(3,4-dihydroisoquinolin-2(1H)-yl)-2-hydroxypropyl)-7-(pyridazin-4-ylamino)-3,4-dihydrobenzo[f][1,4]oxazepin-5(2H)-one] |
| 0.0049 | 0.68 | 0.029 | 0.5 | O=C1c2cc(Nc3ccnnc3)ccc2CCN1C[C@H](O)CN1CCc2ccccc2C1 [Compound 28a, (R)-2-(3-(3,4-dihydroisoquinolin-2(1H)-yl)-2-hydroxypropyl)-7-(pyridazin-4-ylamino)-3,4-dihydroisoquinolin-1(2H)-one] |
